Experimental data: ChEMBL document CHEMBL5052829, “Arf6 inhibitors and related methods” (2021)
Active and inactive are the calls of the source. The rule behind the calls is not given here.

Tests used:
[1] = Clearance in Sprague-Dawley rats at 1.4 mg/kg, iv; assay type: ADME, organism-based; conditions: rat, in vivo
[2] = Terminal half-life in Sprague-Dawley rats at 1.4 mg/kg, iv; assay type: ADME, organism-based; conditions: rat, in vivo, read-out: beta t1/2 (converted)
[3] = Volume of distribution in Sprague-Dawley rats at 1.4 mg/kg, iv; assay type: ADME, organism-based; conditions: rat, in vivo
[4] = Toxicity in multidrug-resistant Pseudomonas aeruginosa infected mouse model of pneumonia assessed as improvement in animal survival at 64 mg/kg, sc administered once daily for 6 days; assay type: organism-based; conditions: in vivo, 144 h, time 6 day
[5] = system: Mus musculus; experiment: Antiinflammatory activity in mouse model of LPS-induced acute lung injury assessed as reduction in BALF protein at 38 mg/kg, iv; assay type: functional, organism-based
[6] = system: Mus musculus; experiment: Antiinflammatory activity in mouse model of LPS-induced acute lung injury assessed as reduction in total cell count in BALF at 64 mg/kg, iv; assay type: functional, organism-based
[7] = system: Mus musculus; experiment: Antiinflammatory activity in mouse model of LPS-induced acute lung injury assessed as reduction in BALF protein at 64 mg/kg, iv; assay type: functional, organism-based
[8] = Solubility in water; assay type: physicochemical
[9] = Toxicity in multidrug-resistant Pseudomonas aeruginosa infected mouse model of pneumonia assessed as improvement in animal survival at 38 mg/kg, sc administered once daily for 6 days; assay type: organism-based; conditions: in vivo, 144 h, time 6 day
[10] = system: Mus musculus; experiment: Antiinflammatory activity in mouse model of LPS-induced acute lung injury assessed as reduction in total cell count in BALF at 38 mg/kg, iv; assay type: functional, organism-based
[11] = system: Mus musculus; experiment: Antiinflammatory activity in mouse model of LPS-induced acute lung injury assessed as reduction in BALF protein at 5 mg/kg, ip administered immediately or 6 hrs after LPS stimulation; assay type: functional; design: scale not given: the % may be the effect or the level left

NCCCC[C@H](N)C(=O)Oc1cc([N+](=O)[O-])ccc1-c1cc(=O)[nH]c2c(-c3ccc(Cl)cc3)c(Cc3ccccc3)nn12
clearance [1]: 0.025 L/h/kg
half-life [2]: 10.9 h
Vd [3]: 0.383 L/kg

Cc1ccc(-c2c[nH]c3c(-c4ccc(Cl)cc4)c(Cc4ccccc4)nn3c2=O)c(OP(=O)([O-])[O-])c1.[Na+].[Na+]
Activity [4]: Non-Toxic
Activity [5]: Active
Activity [6]: Active
Activity [7]: Active
solubility [8]: > 50 µM
Activity [9]: Non-Toxic
Activity [10]: Active

O=c1c(-c2ccc(F)cc2OP(=O)([O-])[O-])c[nH]c2c(-c3ccc(Cl)cc3)c(Cc3ccccc3)nn12.[Na+].[Na+]
solubility [8]: > 50 µM

Cc1ccc(-c2c[nH]c3c(-c4ccc(Cl)cc4)c(Cc4ccccc4)nn3c2=O)c(O)c1
solubility [8]: < 1 µM

C[C@@H]1C[C@H]2[C@@H]3CCC4=CC(=O)C=C[C@]4(C)[C@@]3(F)[C@@H](O)C[C@]2(C)[C@@]1(O)C(=O)CO [DEXAMETHASONE]
Activity [11]: 37%

Cc1ccc(-c2cc(=O)[nH]c3c(-c4ccc(Cl)cc4)c(Cc4ccccc4)nn23)c(OP(=O)([O-])[O-])c1.[Na+].[Na+]
solubility [8]: > 50 µM

Cc1ccc(-c2cc(=O)[nH]c3c(-c4ccc(Cl)cc4)c(Cc4ccccc4)nn23)c(OP(=O)(O)O)c1
solubility [8]: > 50 µM
